For orientation: inhibition means the percentage by which the read-out fell short of the control. A low value points to a weak effect.

One data set concerns the target T1, MMP-1 enzyme (Homo sapiens, UniProt P03956).
T1 sequence (P03956 100-469): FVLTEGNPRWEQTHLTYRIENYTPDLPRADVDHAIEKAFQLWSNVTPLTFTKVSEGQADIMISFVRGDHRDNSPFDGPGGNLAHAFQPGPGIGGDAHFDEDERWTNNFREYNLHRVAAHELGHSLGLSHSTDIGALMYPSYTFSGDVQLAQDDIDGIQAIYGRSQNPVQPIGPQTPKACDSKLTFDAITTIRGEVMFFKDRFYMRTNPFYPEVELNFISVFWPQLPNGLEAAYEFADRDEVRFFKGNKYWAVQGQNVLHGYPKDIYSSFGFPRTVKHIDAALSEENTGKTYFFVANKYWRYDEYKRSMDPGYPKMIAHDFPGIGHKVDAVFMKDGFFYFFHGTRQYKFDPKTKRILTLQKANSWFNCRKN
The data set can be described thus: Metalloproteinase-1 (MMP-1) enzyme activity. It counts as biochemical. The procedure:
The MMP-1 enzyme was evaluated after incubation with the Vehicle (0.04% DMSO), ST-035 (10 μg/mL), Ascorbic acid Reference Substance (10 μg/mL), Ferulic acid Reference Substance (4 μg/mL) or positive control of the test, GM6001, a MMP-1 enzyme activity inhibitor. The bars represent the mean±standard error of the mean of 1 assay performed in triplicate. The percentage of inhibition was calculated in relation to the Vehicle group. For the statistical analysis a one-way analysis of variance (ANOVA) was used, followed by the Newman-Keuls test (*p<0.05 in comparison to Vehicle group).

Data set [1] deals with reconstructed human tissue model. The data set is described as follows: Skin irritation assay, reconstructed human epidermis (OECD TG439). The data set is classed as cell-based. Conditions: 42 minutes treatment; three tissues. The method, then: The possible irritant action of ST-035 on a reconstructed human tissue model, as described in the OECD Guidelines for the Testing of Chemicals, Section 4, TG439 In Vitro Skin Irritation: Reconstructed Human Epidermis Test Method was evaluated. After receiving the tissues, they were readapted in growth medium overnight until the Treatment moment. After the readaptation, Negative Control, positive control (Reference Substance) or Test Substance were added in a 16 μL volume on the epidermis and maintained for 42 minutes (±1 minute). Following, each tissue went through a 25-phosphate buffer washing process to remove the Treatments. Subsequently, the epidermis was maintained for 42 hours (±1 hour) in growth medium in a CO2 incubator (5±0.1%) at 37±0.1° C. After this period, the tissues were incubated for 3 hours (±15 minutes) with a 1 mg/mL MTT solution and then 2 hours with isopropanol for the formazan complex extraction. Then, 200 μL of each well (in duplicate) were transferred to a 96-well plate for absorbance reading at 570 nm.
Skin irritation assay in a reconstructed human skin model is an alternative method that follows the OECD TG439 standards and is validated by international centers, with international regulatory acceptance. […]

For data set [2], the system named is human keratinocytes. The data set can be described thus: Intrinsic antioxidant activity (basal EROs production) with DCFH-DA probe in keratinocytes. Conditions: no UVB, vs vehicle. It counts as cell-based. The procedure:
The 2′,7′ dichlorofluorescein diacetate (nonfluorescent) is de-esterified intracellularly and becomes a 2′,7′ highly fluorescent dichlorofluorescein after oxidation. Fluorescence detection was performed at 485 nm excitation wavelength and 535 nm emission wavelength in SpectraMax i3x (Molecular Devices) equipment. […] The concentrations of the Test Substance (10 μg/mL), Ascorbic acid Reference Substance (10 μg/mL) and Ferulic acid Reference Substance (4 μg/mL) were prepared according to the description above (Test Substance, Reference Substances and Vehicle Preparation). The intrinsic antioxidant activity of Test Substance in human keratinocytes was evaluated as follows. […] Subsequently, the production of EROs was evaluated through the microplate reader (485/535 nm). Two different assays were performed in triplicate. For the statistical analysis, one-way analysis of variance (ANOVA) was used, followed by the Newman-Keuls test (*p<0.05 in comparison to Vehicle group).

The test system of a further data set is human fibroblasts. The data set can be described thus: Antioxidant potential against UVB in human fibroblasts (DCFH-DA probe). Conditions: pre-incubation before UVB 90 mJ/cm^2, vs vehicle+UVB. The data set is classed as cell-based. The method, then:
The 2′,7′ dichlorofluorescein diacetate (nonfluorescent) is de-esterified intracellularly and becomes a 2′,7′ highly fluorescent dichlorofluorescein after oxidation. Fluorescence detection was performed at 485 nm excitation wavelength and 535 nm emission wavelength in SpectraMax i3x (Molecular Devices) equipment. […] The concentrations of the Test Substance (10 μg/mL), Ascorbic acid Reference Substance (10 μg/mL) and Ferulic acid Reference Substance (4 μg/mL) were prepared according to the description above (Test Substance, Reference Substances and Vehicle Preparation). The human fibroblasts were incubated with a DCFH-DA probe (50 μM) for 30 minutes. After this period, the fibroblasts were incubated. For statistical analysis, one-way variance analysis (ANOVA) was used, followed by Newman-Keuls test (#p<0.05 compared to Vehicle group and *p<0.05 compared to Vehicle+UVB 90 mJ/cm^2).

In data set [3] the test system is human keratinocytes. The data set is described as follows: Scavenger potential against UVB radiation in keratinocytes (DCFH-DA probe). It counts as cell-based. Conditions: 10 μg/mL added immediately prior to UVB 90 mJ/cm^2; vs vehicle+UVB. The procedure:
(§1) The 2′,7′ dichlorofluorescein diacetate (nonfluorescent) is de-esterified intracellularly and becomes a 2′,7′ highly fluorescent dichlorofluorescein after oxidation. Fluorescence detection was performed at 485 nm excitation wavelength and 535 nm emission wavelength in SpectraMax i3x (Molecular Devices) equipment. […] The concentrations of the Test Substance (10 μg/mL), Ascorbic acid Reference Substance (10 μg/mL) and Ferulic acid Reference Substance (4 μg/mL) were prepared according to the description above (Test Substance, Reference Substances and Vehicle Preparation).

Data set [4] has as its system human keratinocytes. The data set is described as follows: Antioxidant potential against UVB radiation in keratinocytes (24 h pre-treatment, DCFH-DA probe). It counts as cell-based. Conditions: 10 μg/mL; incubation 24 hours before UVB 90 mJ/cm^2; vs vehicle+UVB. The procedure: as §1
For data set [5], the system named is human keratinocytes. The data set can be described thus: Scavenger activity against UVB radiation, section headed 'in Fibroblasts' (FIG. 14). It counts as cell-based. Conditions: 10 μg/mL added immediately prior to UVB 90 mJ/cm2; vs vehicle+UVB. The method, then:
as §1

A further data set has as its system tyrosinase. The data set can be described thus: Tyrosinase enzyme activity. It counts as biochemical.

Protocol for tyrosinase: After that, 170 μL of L-tyrosine substrate 1 mM, solubilized in a potassium phosphate buffer 50 mM (pH 6.5) were added. After the incubation period of 30 to 40 minutes, the plate was read at 490 nm.
For the statistical analysis one-way analysis of variance (ANOVA) was used, followed by the Newman-Keuls test (*p<0.05 in comparison to the Vehicle group). The percentage of inhibition was calculated in relation to the Vehicle group.

For `CNC(=O)[C@H](Cc1c[nH]c2ccccc12)NC(=O)[C@@H](CC(=O)NO)CC(C)C` [GM6001], the “reduction of MMP-1 activity” value at MMP-1 enzyme (1 μM, assay validation) is 81.3±1.5%.

Regarding `CCCCCCCCCCCCOS(=O)(=O)[O-].[Na+]` [SDS, sodium dodecylsulfate], the “tissue viability mean (absorbance at 570 nm)” value in data set [1] was found to be 0.018±0.001.

With `O=C1O[C@H]([C@@H](O)CO)C(O)=C1O` [ascorbic acid], the “reduction of basal production of EROs” value in the data set on human keratinocytes [2] (10 μg/mL, 4 hours) is on record as “did not change”; with human keratinocytes [2] (10 μg/mL, 24 hours), “did not change”. The “reduction of production of reactive oxygen species (antioxidant potential)” value in the data set with human fibroblasts (10 μg/mL) came out at 30.5±6.2%. Besides, the “reduction of UVB induced production of EROs (scavenger potential)” value in the data set on human keratinocytes [3] is 46.2±2.0%. In addition, testing at 10 µg/mL at MMP-1 enzyme (10 μg/mL, vs vehicle) gave an inhibition of 9.2 ± 1.5%. Also, the “decrease of production of EROs after UVB (antioxidant capacity)” value with human keratinocytes [4] was 44.3±11.4%. Further, the “reduction of UVB induced production of EROs (scavenger potential, FIG. 14)” value with human keratinocytes [5] was determined as 46.2±2.0%.

As for `COc1cc(/C=C/C(=O)O)ccc1O` [ferulic acid], the “reduction of basal production of EROs” value in the data set on human keratinocytes [2] (4 μg/mL, 4 hours) came to 26.8±2.4%; with human keratinocytes [2] (4 μg/mL, 24 hours), 45.8±6.6%. Besides, the “reduction of production of reactive oxygen species (antioxidant potential)” value with human fibroblasts (4 μg/mL) was 47.4±0.5%. The “change of MMP-1 activity in vitro” value at MMP-1 enzyme (4 μg/mL, vs vehicle) is “did not change”.

As to `O=c1cc(CO)occ1O` [kojic acid], the “reduction of tyrosinase enzyme activity” value in the data set on tyrosinase (300 μg/mL) amounted to 43%; with tyrosinase (1,000 μg/mL) it was 84%.

The values above are taken from patent US20240285514A1, “EXTRACTS OF EUTERPE OLERACEA, METHODS OF MAKING, AND USES THEREOF” (Naturesphix Limited, priority 2021, published 2024).
